Data on 21 compounds can be found in PMC10708259 (Molecules, 2023).

The structures appear in SMILES notation. Some results are limits rather than exact numbers.

In test [1] the target is T1, human μ-opioid receptor (OPRM1) (Homo sapiens, UniProt P35372).
T1 construct: host or cells: cAMP Hunter CHO-K1
The test is described as follows: cell-based. Conditions: for EC50: MOR Agonist EC50 ± SEM; for Emax: read-out: MOR Agonist %Emax ± SEM. The test is classed as cell-based.

In test [2] the target is human δ-opioid receptor (OPRD1) (Homo sapiens, UniProt P41143). Kind of test: Forskolin-induced cAMP accumulation assay, DOR agonist mode. Conditions: for Emax: CHO-K1, read-out: DOR Agonist %Emax ± SEM; for DOR efficacy in words: cAMP assay.
Test [3] addresses T2, human κ-opioid receptor (OPRK1) (Homo sapiens, UniProt P41145). Kind of test: Forskolin-induced cAMP accumulation assay, KOR agonist mode. Particulars: for Emax: CHO-K1, read-out: KOR Agonist %Emax ± SEM. (Cyclic AMP is a second messenger, typically raised through Gs and lowered through Gi signalling.)
Test [4] concerns the target T2, human κ-opioid receptor (OPRK1). The test is described as follows: Forskolin-induced cAMP accumulation assay, KOR antagonist mode.

T1 sequence (P35372 whole entry): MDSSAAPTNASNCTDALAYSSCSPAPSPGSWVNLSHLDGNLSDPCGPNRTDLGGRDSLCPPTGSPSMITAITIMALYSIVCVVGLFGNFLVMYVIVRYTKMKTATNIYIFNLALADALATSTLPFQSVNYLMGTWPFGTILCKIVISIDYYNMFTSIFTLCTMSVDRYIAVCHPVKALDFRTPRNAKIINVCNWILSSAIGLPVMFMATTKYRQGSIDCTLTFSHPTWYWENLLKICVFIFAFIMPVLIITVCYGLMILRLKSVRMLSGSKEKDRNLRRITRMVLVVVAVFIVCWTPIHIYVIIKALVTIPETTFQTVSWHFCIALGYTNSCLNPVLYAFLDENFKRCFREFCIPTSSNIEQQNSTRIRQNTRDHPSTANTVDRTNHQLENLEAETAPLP
T2 sequence (P41145 whole entry): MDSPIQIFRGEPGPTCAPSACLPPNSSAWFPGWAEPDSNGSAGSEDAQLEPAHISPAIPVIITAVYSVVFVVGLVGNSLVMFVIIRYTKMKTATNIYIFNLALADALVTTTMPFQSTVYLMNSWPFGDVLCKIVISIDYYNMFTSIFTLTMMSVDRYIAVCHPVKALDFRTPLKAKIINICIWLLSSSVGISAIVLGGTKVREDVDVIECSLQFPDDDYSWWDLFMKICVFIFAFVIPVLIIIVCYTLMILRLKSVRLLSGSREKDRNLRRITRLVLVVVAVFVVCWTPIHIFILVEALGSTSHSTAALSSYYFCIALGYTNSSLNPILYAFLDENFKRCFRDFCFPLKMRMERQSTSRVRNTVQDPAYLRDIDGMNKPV
human δ-opioid receptor (OPRD1), sequence (P41143 whole entry): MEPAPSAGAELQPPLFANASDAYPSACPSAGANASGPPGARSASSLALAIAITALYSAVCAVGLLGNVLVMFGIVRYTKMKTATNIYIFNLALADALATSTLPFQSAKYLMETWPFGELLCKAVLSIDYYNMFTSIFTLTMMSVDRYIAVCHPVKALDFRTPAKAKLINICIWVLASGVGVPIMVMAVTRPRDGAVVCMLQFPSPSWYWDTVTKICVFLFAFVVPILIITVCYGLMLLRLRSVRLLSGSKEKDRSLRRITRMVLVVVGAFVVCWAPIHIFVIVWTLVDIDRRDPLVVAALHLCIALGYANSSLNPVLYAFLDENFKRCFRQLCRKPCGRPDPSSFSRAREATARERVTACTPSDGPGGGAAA

For orientation: EC50 means the concentration giving half of the maximal effect. High values mean a less potent agent, low ones a more potent agent. Usually Emax stands for the size of the effect at its maximum, as opposed to the concentration needed. What is called IC50 is the concentration that inhibits the measured activity by half. With `CC1c2ccc(O)cc2[C@@]2(C)CCN(CCc3ccccc3)[C@@H]1[C@H]2C` (single isomer, unassigned; (+)) [(+)-39], the EC50 in test [1] is 21.7 nM; in test [2] it was 1340 ± 389 nM; in test [3], 953 ± 120 nM. Also, the Emax in test [1] was 103%; in test [2], 94%; in test [3] it was 37%. This compound yielded a half-inhibitory concentration (IC50) in test [4] greater than 10000 nM.

For the compound `CC1C2Cc3ccc(O)cc3C1(C)CCN2CCc1ccccc1C(F)(F)F` [Compound 11, (1R,5R,9R)-6,11-Dimethyl-3-(2-trifluoromethylphenethyl)-1,2,3,4,5,6-hexahydro-2,6-methanobenzo[d]azocin-8-ol], the EC50 in test [1] was 6 nM; in test [2], 24 ± 5 nM; in test [3] it was 36 ± 3 nM. Besides, the Emax in test [1] was 102%; in test [2], 77%; in test [3], 72%.

Turning to `CC1C2Cc3ccc(O)cc3C1(C)CCN2CCc1cccc([N+](=O)[O-])c1` [Compound 4, (1R,5R,9R)-6,11-Dimethyl-3-(3-nitrophenethyl)-1,2,3,4,5,6-hexahydro-2,6-methanobenzo[d]azocin-8-ol], in test [1], the EC50 came out at 26 nM and the maximum response (Emax) was 71%.

`C[C@H]1[C@H]2Cc3ccc(O)cc3[C@]1(C)CCN2CCCc1ccccc1` [Compound 24, (1R,5R,9R)-6,11-Dimethyl-3-(phenylpropyl)-1,2,3,4,5,6-hexahydro-2,6-methanobenzo[d]azocin-8-ol]: in test [1], the “MOR agonist potency / efficacy in words” value was “little or no potency”, a half-maximal effect (EC50) was put at 69 nM and the Emax was 101%.

For `CC1C2Cc3ccc(O)cc3C1(C)CCN2CCc1ccc(Br)cc1` [Compound 12, (1R,5R,9R)-6,11-Dimethyl-3-(4-bromophenethyl)-1,2,3,4,5,6-hexahydro-2,6-methanobenzo[d]azocin-8-ol], the EC50 was 0.7 nM in test [1], 1.1 ± 0.3 nM in test [2] and 5 ± 2 nM in test [3]. The Emax in test [1] is 102%; in test [2], 89%; in test [3] it was 100%. The “DOR efficacy in words” value in test [2] was “partial DOR agonists”.

On to `CC1C2Cc3ccc(O)cc3C1(C)CCN2CCc1ccccc1Cl` [Compound 17, (1R,5R,9R)-6,11-Dimethyl-3-(2-chlorophenethyl)-1,2,3,4,5,6-hexahydro-2,6-methanobenzo[d]azocin-8-ol], for which the EC50 in test [1] was determined as 1.4 nM; in test [2], 15 ± 4 nM; in test [3] it was 8 ± 1 nM. Also, the Emax in test [1] is 101%; in test [2], 87%; in test [3], 57%.

As for `CC1C2Cc3ccc(O)cc3C1(C)CCN2CCc1ccc([N+](=O)[O-])cc1` [Compound 3, (1R,5R,9R)-6,11-Dimethyl-3-(4-nitrophenethyl)-1,2,3,4,5,6-hexahydro-2,6-methanobenzo[d]azocin-8-ol], the EC50 was 0.3 nM in test [1], 2.7 ± 1 nM in test [2] and 13 ± 0.5 nM in test [3]. Also, the results for the Emax in test [1], in test [2] and in test [3] were 101%, 88% and 46%, respectively. The “DOR efficacy in words” value in test [2] is recorded as “partial DOR agonists”.

For the compound `CC1C2Cc3ccc(O)cc3C1(C)CCN2CCc1ccc(O)cc1` [Compound 20, (1R,5R,9R)-6,11-Dimethyl-3-(4-hydroxyphenethyl)-1,2,3,4,5,6-hexahydro-2,6-methanobenzo[d]azocin-8-ol], the “MOR potency relative to morphine (times more potent than morphine)” value (“MOR potency relative to morphine” for short) in test [1] was roughly 40 times. Further, the concentration giving a half-maximal response (EC50) in test [1] stood at 0.13 nM; in test [2], 5 ± 1 nM; in test [3] it was 8 ± 3 nM. The values for the Emax in test [1], in test [2] and in test [3] were 102%, 84% and 97%, respectively.

`Cc1ccc(CCN2CCC3(C)c4cc(O)ccc4CC2C3C)cc1` [Compound 19, (1R,5R,9R)-6,11-Dimethyl-3-(4-methylphenethyl)-1,2,3,4,5,6-hexahydro-2,6-methanobenzo[d]azocin-8-ol]: the EC50 stood at 1.4 nM in test [1], 5 ± 2 nM in test [2] and 13 ± 3 nM in test [3]. The results for the Emax in test [1], in test [2] and in test [3] were 103%, 87% and 93%, respectively.

`C=C1c2ccc(O)cc2[C@]2(C)CCN(CCc3ccccc3)[C@H]1[C@@H]2C` [(−)-38, (2S,6R,11R)-6,11-Dimethyl-1-methylene-3-phenethyl-1,2,3,4,5,6-hexahydro-2,6-methanobenzo[d]azocin-8-ol]: in test [1], the “MOR potency relative to morphine” value is “about 25 times”, the EC50 turned out to be 0.23 nM and the maximal response (Emax) is 101%. Besides, in test [2], a half-maximal response (EC50) required 4.9 ± 3 nM and the Emax is 89%. In test [3], the EC50 was 9.5 ± 2 nM and the maximal effect (Emax) is 57 ± 45.6%.

For `CC1C2Cc3ccc(O)cc3C1(C)CCN2CCc1ccc(C(F)(F)F)cc1` [Compound 9, (1R,5R,9R)-6,11-Dimethyl-3-(4-trifluoromethylphenethyl)-1,2,3,4,5,6-hexahydro-2,6-methanobenzo[d]azocin-8-ol], the values for the EC50 in test [1], in test [2] and in test [3] were 2 nM, 3 ± 1 nM and 23 ± 5 nM, respectively. In addition, the Emax in test [1] was 102%; in test [2], 72%; in test [3], 100%. Also, the “DOR efficacy in words” value in test [2] is on record as “partial DOR agonists”.

Turning to `CC1C2Cc3ccc(O)cc3C1(C)CCN2CCc1ccc(Cl)cc1` [Compound 15, (1R,5R,9R)-6,11-Dimethyl-3-(4-chlorophenethyl)-1,2,3,4,5,6-hexahydro-2,6-methanobenzo[d]azocin-8-ol], in test [1], the concentration for a half-maximal effect (EC50) amounted to 1.3 nM and the Emax was 103%. In test [2], the EC50 was 1.2 ± 0.5 nM, the Emax was 89% and the “DOR efficacy in words” value is on record as “partial DOR agonists”. In test [3], the EC50 was found to be 5 ± 1 nM and the Emax is 97%.

For the compound `C=C1c2ccc(O)cc2[C@@]2(C)CCN(CCc3ccccc3)[C@@H]1[C@H]2C` [(+)-38, (2R,6S,11S)-6,11-Dimethyl-1-methylene-3-phenethyl-1,2,3,4,5,6-hexahydro-2,6-methanobenzo[d]azocin-8-ol], the values for the EC50 in test [1], in test [2] and in test [3] were 70 nM, 978 ± 374 nM and 1180 ± 46 nM, respectively. For the same compound, the Emax in test [1] is 102%; in test [2], 92%; in test [3] it was 53%.

Turning to `CC1C2Cc3ccc(O)cc3C1(C)CCN2CC=Cc1ccccc1` [Compound 25, (1R,5R,9R)-6,11-Dimethyl-3-(cinnamyl)-1,2,3,4,5,6-hexahydro-2,6-methanobenzo[d]azocin-8-ol], in test [1], the “MOR agonist potency / efficacy in words” value is “little or no potency”, a half-maximal effect (EC50) was put at 244 nM and the maximum response (Emax) was 101%.

As for `COc1ccc(CCN2CCC3(C)c4cc(O)ccc4CC2C3C)cc1` [Compound 18, (1R,5R,9R)-6,11-Dimethyl-3-(4-methoxyphenethyl)-1,2,3,4,5,6-hexahydro-2,6-methanobenzo[d]azocin-8-ol], the concentration giving a half-maximal response (EC50) in test [1] stood at 1.2 nM; in test [2], 4 ± 1 nM; in test [3] it was 9 ± 2 nM. Moreover, the Emax is 103% in test [1], 87% in test [2] and 89% in test [3].

Regarding `CC1C2Cc3ccc(O)cc3C1(C)CCN2CCc1cccc(C(F)(F)F)c1` [Compound 10, (1R,5R,9R)-6,11-Dimethyl-3-(3-trifluoromethylphenethyl)-1,2,3,4,5,6-hexahydro-2,6-methanobenzo[d]azocin-8-ol], in test [1], it took 167 nM to reach a half-maximal effect (EC50) and the Emax was 63%.

On to `C[C@@H]1[C@@H]2C(O)c3ccc(O)cc3[C@@]1(C)CCN2CCc1ccccc1` (single isomer, unassigned; (+)) [(+)-36], for which the EC50 in test [1] is 25.2 nM; in test [2] it was 1910 ± 232 nM; in test [3], greater than 10000 nM. Besides, the values for the maximal response (Emax) in test [1] and in test [2] were 103% and 97%, respectively.

Regarding `CC1C2Cc3ccc(O)cc3C1(C)CCN2CCc1ccc(Cl)cc1Cl` [Compound 21, (1R,5R,9R)-6,11-Dimethyl-3-(2,4-dichlorophenethyl)-1,2,3,4,5,6-hexahydro-2,6-methanobenzo[d]azocin-8-ol], the figures for the EC50 in test [1], in test [2] and in test [3] were 5 nM, 37 ± 9 nM and 42 ± 10 nM, respectively. Besides, the Emax in test [1] was 103%; in test [2], 86%; in test [3] it was 93%.

`CC1C2Cc3ccc(O)cc3C1(C)CCN2CCc1ccccc1F` [Compound 8, (1R,5R,9R)-6,11-Dimethyl-3-(2-fluorophenethyl)-1,2,3,4,5,6-hexahydro-2,6-methanobenzo[d]azocin-8-ol]: the “MOR potency relative to morphine” value in test [1] is “about 30 times”. The results for the EC50 in test [1], in test [2] and in test [3] were 0.2 nM, 6 ± 2 nM and 6 ± 1 nM, respectively. The Emax in test [1] is 101%; in test [2], 87%; in test [3], 45%.

Consider `C[C@H]1[C@H]2Cc3ccc(O)cc3[C@]1(C)CCN2CCCc1ccc([N+](=O)[O-])cc1` [Compound 31, (1R,5R,9R)-6,11-Dimethyl-3-(3-(4-nitrophenyl)propyl)-1,2,3,4,5,6-hexahydro-2,6-methanobenzo[d]azocin-8-ol], for which, in test [1], the “MOR agonist potency / efficacy in words” value is “little or no potency” and the EC50 was no less than 10000 nM.

Take `CC1C2Cc3ccc(O)cc3C1(C)CCN2CCc1ccccc1Br` [Compound 14, (1R,5R,9R)-6,11-Dimethyl-3-(2-bromophenethyl)-1,2,3,4,5,6-hexahydro-2,6-methanobenzo[d]azocin-8-ol]: the EC50 in test [1] was 2 nM; in test [2] it was 13 ± 2 nM; in test [3], 16 ± 2 nM. The maximal response (Emax) in test [1] was 101%; in test [2], 89%; in test [3], 80%.
